One series concerns 293T cells. Briefly: Cellular proteome analysis by mass spectrometry in 293T cells. It is filed as cell-based, human. As to conditions: 10 µM, 18 h, 28 proteins with highest SEQUEST scores. The procedure:
To determine if 1H4 has a negative effect on protein expression profiles, we analyzed the global cellular proteome by mass spectrometry. Protein expression was analyzed in 293T cells untreated or treated with 1H4 as described in Materials and Methods. We detected expression of 1722 proteins in the untreated sample and 1739 proteins in the 1H4-treated sample (not shown).
Samples were separated by reversed-phase liquid chromatography (HPLC), using micro-capillary column C18, coupled in line with nanospray and tandem mass spectrometer Thermo LTQ Orbitrap XL. The LC gradient was run for 60 min from 2% to 30% of acetonitrile containing 0.1% formic acid at flow rate 400 nL/min. In single measurement block we performed 1 FT MS scan and 3 data dependent FT MS/MS scans on major multi-charged MS peaks with resolution 30000. The normalized collision-induced dissociation (CID) energy was 35%. The MS/MS spectra were compared against those in the NCBI human protein database. Proteins that were not present in the database, i.e. recombinant Flag-Tat, were manually added to the database. Only peptides having X-correlation (X corr) cutoffs of 1.9 for [M +2H]^2+, 2.3 for [M +3H]^3+ and higher charge state were considered. […]
As a negative control untreated cells were used. […] The MS-MS data were analyzed by SEQUEST.

The nature of series [1]: Trypan blue exclusion viability assay in CEM cells. The class given is cell-based. As to conditions: human, read-out: Cytotoxicity IC50 in CEM cells by trypan blue exclusion.
The next series concerns CEM cells. Briefly: Toxicity by propidium iodide fluorescence in CEM-GFP cells. It is filed as cell-based. The settings on record: Homo sapiens, CCRF-CEM, 3 µM to 45 µM, 24 h.
The target in the next series is T1, recombinant PP1α (Oryctolagus cuniculus, UniProt P62139).
T1 construct: purchased New England Biolabs, Ipswich, MA
T1 sequence (P62139 whole entry): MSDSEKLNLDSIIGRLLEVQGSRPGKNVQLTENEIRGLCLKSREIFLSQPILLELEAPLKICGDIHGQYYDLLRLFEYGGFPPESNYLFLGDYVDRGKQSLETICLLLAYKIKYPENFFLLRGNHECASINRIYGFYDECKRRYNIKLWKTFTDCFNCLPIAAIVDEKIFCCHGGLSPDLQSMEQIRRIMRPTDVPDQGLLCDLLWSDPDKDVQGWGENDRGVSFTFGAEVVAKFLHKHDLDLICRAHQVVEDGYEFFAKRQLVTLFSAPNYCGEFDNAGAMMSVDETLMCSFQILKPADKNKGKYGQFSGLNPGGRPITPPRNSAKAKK
The experiment in a line: Malachite green dephosphorylation of generic KT(pT)IRR peptide by PP1α. It is filed as biochemical. As to conditions: 1H4 300 µM, KT(pT)IRR 3 µM; control 1.4. The method, then: To determine whether 1H4 has an effect on the enzymatic activity of PP1, we used recombinant PP1α and a generic substrate, phosphorylated KT(pT)IRR peptide which is recognized equally well by PP1 and PP2A [13]. The KT(pT)IRR peptide (3 µM) was efficiently dephosphorylated by PP1α (Fig. 6A, V0 = 1.4 µM·min^−1). […] We further investigated the effect of 1H4 on PP1 enzymatic activity by analyzing the initial velocity versus KT(pT)IRR peptide substrate concentration plots in the absence and presence of 1H4 that were approximated by Michaelis-Menten equation (Fig. 6B) and also visualized in Lineweaver-Burk representation (Fig. 6C).
Figure 6 1H4 has no effect on PP1 enzymatic activity. […] The amount of released phosphate was quantified by the absorbance and phosphate concentration was recalculated using standards. Initial velocity was calculated by linear regression in Prism. […] The amount of released phosphate was quantified with malachite green. The VMAX and Km were calculated by non-linear regression analysis for Michaelis-Menten equation in Prism. […]
Inhibition data were analyzed using GraphPad Prism 4 software (GraphPad Software, La Jolla, CA). The IC50 values were determined from a sigmoidal dose-response (variable slope) curve using four parameter logistic equation Y = Bottom+(Top-Bottom)/([…]). […]

As for `COCCNC(=O)COC(=O)c1c2c(nc3ccccc13)/C(=C/c1ccc(O)cc1)CCC2` [1H4], the “Effect on cellular proteome” value in the series with 293T cells was “did not significantly change the cellular proteome”. For the same compound, the IC50 (usually the concentration that inhibits the measured activity by half) at 24 h in series [1] is over 100 µM. This compound displayed an IC50 in the series on CEM cells of over 25 µM. For the same compound, the “V0 of KT(pT)IRR peptide dephosphorylation by PP1α in presence of compound” value at recombinant PP1α is reported as 1.3 µM·min^-1.
